In this experiment the test system is rumen liquor. Description: In vitro test for methane production, modified Hohenheim Forage value Test (HFT). The format is cell-based. As to conditions: TMR feed, 8 hours at 39° C., average of four to eight experiments. The procedure:
In vitro test for methane production: A modified version of the “Hohenheim Forage value Test (HFT)” was used for testing the effect of specific compounds on the rumen functions mimicked by this in-vitro system.
Principle: Feed is gadded into a syringe with a composition of rumen liquor and an appropriate mixture of buffers. The solution is incubated at 39° C. After 8 hours the quantity (and composition) of gas phase produced is measured and put into a formula for conversion.
Sample weighing: The feed stuff (i.e. TMR (44% concentrate, 6% hay, 37% maize silage and 13% grass silage) is sieved to 1 mm and weighed exactly into 64 syringes. 4 of these syringes are the substrate controls, which display the gas production without the effect of the tested compounds. 4 other syringes are positive control (3-NOP, […]). When needed, 4 syringes contain a carrier control (if the test compounds need a carrier). The remaining syringes contain the test substances, by groups of 4 syringes, in the amounts as indicated in table 1.
• The components are mixed in a Woulff bottle in following order: • 711 ml water • 0.18 ml trace element solution • 355.5 ml buffer solution • 355.5 ml mass element solution • The completed solution is warmed up to 39° C. followed by the addition of 1.83 ml sodium salt solution and the addition of reduction solution at 36° C. • The rumen liquor is added, when the indicator turns colourless.
Extraction of the rumen liquor: 750 ml of rumen liquor are added to approximately 1,400 ml of medium solution under continued agitation and CO2-gassing.
Filling the syringes, incubation and determining gas volumes and VFA values: The diluted rumen fluid (24 ml) is added to the glass syringe. The syringes are then incubated for 8 hours at 39° C. under gentle agitation. After 8 hours, the volume of gas produced is measured, and the percentage of methane in the gas phase is determined by gas chromatography.
The food fermented was artificial TMR (44% concentrate, 6% hay, 37% maize silage and 13% grass silage). […]

Take `O=[N+]([O-])OCCCO` [PDMN, Propanediol mononitrate]: the “Total methane change [% vs. control], found” value was −27 % vs. control (PDMN 5 μM) and −98 % vs. control (PDMN 10 μM).

Turning to `C=C(C)C1CC=C(C)CC1` [DL, D-Limonene], for the setting “DL 100 μM”, the “Total methane change [% vs. control], found” value is reported as −1 % vs. control.

The values above are taken from patent publication US20240207200A1, “USE OF PROPANDIOL MONONITRATE AND LIMONENE FOR REDUCING THE FORMATION OF METHANE EMANATING AND FOR IMPROVING THE DIGESTIBILITY” (DSM IP Assets B.V., priority 2021, published 2024).
